Data as given in patent publication US8986419B2, “Mixture for treating fertilizers” (SKW Stickstoffwerke Piesteritz GmbH, priority 2010, dated 2015).
≈ marks a conversion by molar mass, not a printed value. Where “and” joins values, the source holds several entries; their conditions need not be identical. Identical values can stand only once.

What was measured:
[1] = Laboratory test on the volatility of 3-methylpyrazole, storage in open crystallising dishes at room temperature; format: physicochemical; details: open crystallising dish diameter 5 cm
[2] = Simulated open storage test of treated urea granules, TZ/3-MP content determined analytically; format: physicochemical; details: storage period 6 weeks, 9 kg in open-topped vessels, ambient temperature and humidity; listed as pure 3-methylpyrazole sprayed on
Method: The urea granules enclosed in the cement mixer according to Example 8 were stored in a quantity of 9 kg to simulate storage in a pile in open-topped cylindrical vessels (height 30 cm, diameter 30 cm) at ambient temperature and humidity. After a storage period of 2, 4 and 6 weeks average samples were taken and the nitrification inhibitor TZ/3-MP content was determined analytically.
Enclosed urea granules according to Example 9 were stored in the same way in parallel, and average samples taken from these were investigated analytically.

[3] = aqueous formulation; cited from earlier work

Row | Active substance losses in relation to the starting value, MP (%) [2] | SMILES | loss in % ([1]; storage time 1 day) [%] | loss in % ([1]; storage time 2 days) [%] | loss in % ([1]; storage time 3 days) [%] | loss in % ([1]; storage time 6 days) [%] | loss in % ([1]; storage time 12 days) [%] | solubility [3] [mg/mL]
1 | 89 ^1% and 89% | Cc1cc[nH]n1 [Example 3-MP, 3-methylpyrazole] | 12 | 26 | 40 | 87 | 100 | 
2 |  | c1nc[nH]n1 [TZ, 1,2,4-triazole] | 0 | 0 | 1 | 2 | 2 | 
3 |  | N#CN=C(N)N [dicyandiamide, Dicyandiamide] |  |  |  |  |  | 32 (≈ 381 mM)
